Data on one molecule can be found in patent publication US7632839B2, “Mitotic kinesin inhibitors” (Merck & Co. Inc., priority 2005, dated 2009).

The assay has as its target T1, human KSP motor domain (KSP(367H)) (Homo sapiens, UniProt P52732).
T1 construct: were used to amplify the motor domain and the neck linker region; made in house; host or cells: E. coli BL21 (DE3), pRSETa
T1 sequence (P52732 18-359 limits assumed): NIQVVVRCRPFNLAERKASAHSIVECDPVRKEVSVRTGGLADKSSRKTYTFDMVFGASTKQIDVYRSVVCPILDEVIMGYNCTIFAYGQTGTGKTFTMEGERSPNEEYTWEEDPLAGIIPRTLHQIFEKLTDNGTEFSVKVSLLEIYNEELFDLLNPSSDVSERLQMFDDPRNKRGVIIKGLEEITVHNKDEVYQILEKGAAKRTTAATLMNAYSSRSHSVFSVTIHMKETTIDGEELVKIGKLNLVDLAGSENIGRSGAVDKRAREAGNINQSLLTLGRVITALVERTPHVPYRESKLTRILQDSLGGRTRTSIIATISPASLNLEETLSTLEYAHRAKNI
As to the kind of experiment: Kinesin ATPase In Vitro Assay. The class given is biochemical. The note with it: KSP motor domain with microtubules, 1 mM ATP, 23° C. The text has this:
I. Kinesin ATPase In Vitro Assay
Cloning and Expression of Human Poly-Histidine Tagged KSP Motor Domain (KSP(367H))
Plasmids for the expression of the human KSP motor domain construct were cloned by PCR using a pBluescript full length human KSP construct (Blangy et al., Cell, vol. 83, pp 1159-1169, 1995) as a template. The N-terminal primer 5′-[…] (SEQ.ID.NO.: 1) and the C-terminal primer 5′-[…] […] (SEQ.ID.NO.: 2) were used to amplify the motor domain and the neck linker region. The PCR products were digested with AseI and XhoI, ligated into the NdeI/XhoI digestion product of pRSETa (Invitrogen) and transformed into E. coli BL21 (DE3).
Cells were grown at 37° C. to an OD600 of 0.5. […]
The kinesin motor domain is incubated with microtubules, 1 mM ATP (1:1 MgCl2: Na-ATP), and compound at 23° C. in buffer containing 80 mM K-HEPES (pH 7.0), 1 mM EGTA, 1 mM DTT, 1 mM MgCl2, and 50 mM KCl. […] Free phosphate from the ATP hydrolysis reaction is measured via a quinaldine red/ammonium molybdate assay by adding 150 μl of quench C buffer containing a 2:1 ratio of quench A:quench B. Quench A contains 0.1 mg/ml quinaldine red and 0.14% polyvinyl alcohol; quench B contains 12.3 mM ammonium molybdate tetrahydrate in 1.15 M sulfuric acid. The reaction is incubated for 10 minutes at 23° C., and the absorbance of the phospho-molybdate complex is measured at 540 nm.

One may read the IC50 as the concentration that gives 50% inhibition. The low end stands for greater potency in that assay, the high end for weaker potency in that assay. Turning to `Cc1ccc(C(=O)N(CC(F)CN)C(c2nc3cnccc3c(=O)n2Cc2ccccc2)C(C)C)cc1` [Compound I-13, N-(3-amino-2-(R,S)-fluoropropyl)-N-[1-(3-benzyl-4-oxo-3,4-dihydropyrido[3,4-d]pyrimidin-2-yl)-2-(R,S)-methylpropyl]-4-methylbenzamide], the IC50 was no more than 50 µM.
